The results in this text go back to patent CN1202821A, “用于从面颊释放药物的组合物和方法” (Theratech Inc, priority 1995, dated 1998).

The conditions of data set [1]: buccal, dose 119 nmol.
The nature of data set [2]: Double-blind, placebo-controlled crossover study of buccal GLP-1(7-36) amide bilayer tablet: blood glucose, plasma insulin, plasma glucagon. Type of data set: in vivo, human. The settings on record: 400 μg buccal bilayer tablet, healthy volunteers.
Data set [3] in a line: Dog buccal mucosa model: insulin bilayer tablet, blood glucose. The class given is in vivo. The settings on record: mean of 4 dogs, 1 buccal tablet of 0.375 inch, 5 U/kg.
Data set [4] in a line: Buccal delivery of salmon calcitonin from bilayer tablets in dogs (Table 3). The class given is in vivo, dog. The following applies: individual dogs, 2 tablets.

Several values for one entry are separate records, joined by “and”; a condition that tells them apart may be missing. Equal entries are not always repeated.

For `CC[C@H](C)[C@H](NC(=O)[C@H](Cc1ccccc1)NC(=O)[C@H](CCC(=O)O)NC(=O)[C@H](CCCCN)NC(=O)[C@H](C)NC(=O)[C@H](C)NC(=O)[C@H](CCC(N)=O)NC(=O)CNC(=O)[C@H](CCC(=O)O)NC(=O)[C@H](CC(C)C)NC(=O)[C@H](Cc1ccc(O)cc1)NC(=O)[C@H](CO)NC(=O)[C@H](CO)NC(=O)[C@@H](NC(=O)[C@H](CC(=O)O)NC(=O)[C@H](CO)NC(=O)[C@@H](NC(=O)[C@H](Cc1ccccc1)NC(=O)[C@@H](NC(=O)CNC(=O)[C@H](CCC(=O)O)NC(=O)[C@H](C)NC(=O)[C@@H](N)Cc1c[nH]cn1)[C@@H](C)O)[C@@H](C)O)C(C)C)C(=O)N[C@@H](C)C(=O)N[C@@H](Cc1c[nH]c2ccccc12)C(=O)N[C@@H](CC(C)C)C(=O)N[C@H](C(=O)N[C@@H](CCCCN)C(=O)NCC(=O)N[C@@H](CCCNC(=N)N)C(N)=O)C(C)C` [GLP-1(7-36)酰胺], the “生物利用度 (bioavailability)” value in data set [1] (individual subjects 901-907, listed as GLP-1(η-36)酰胺) is 8.04 % and 6.40 % and 10.01 %. For the same compound, the “生物利用度 (bioavailability), mean” value in data set [1] (mean (平均) of subjects) was 7.08 %. Besides, in data set [2], the hypoglycaemia entry is “没有导致低血糖症”.
On to “胰岛素: human insulin in the buccal bilayer tablet of Example 6”, for which the “control of blood glucose concentration by buccal delivery” value in data set [3] was “有效的”.
Regarding `CC(C)C[C@H](NC(=O)[C@H](CCCCN)NC(=O)CNC(=O)[C@H](CC(C)C)NC(=O)[C@@H](NC(=O)[C@@H]1CSSC[C@H](N)C(=O)N[C@@H](CO)C(=O)N[C@@H](CC(N)=O)C(=O)N[C@@H](CC(C)C)C(=O)N[C@@H](CO)C(=O)N[C@@H]([C@@H](C)O)C(=O)N1)C(C)C)C(=O)N[C@@H](CO)C(=O)N[C@@H](CCC(N)=O)C(=O)N[C@@H](CCC(=O)O)C(=O)N[C@@H](CC(C)C)C(=O)N[C@@H](Cc1c[nH]cn1)C(=O)N[C@@H](CCCCN)C(=O)N[C@@H](CC(C)C)C(=O)N[C@@H](CCC(N)=O)C(=O)N[C@H](C(=O)N[C@@H](Cc1ccc(O)cc1)C(=O)N1CCC[C@H]1C(=O)N[C@@H](CCCNC(=N)N)C(=O)N[C@H](C(=O)N[C@@H](CC(N)=O)C(=O)N[C@H](C(=O)NCC(=O)N[C@@H](CO)C(=O)NCC(=O)N[C@H](C(=O)N1CCC[C@H]1C(N)=O)[C@@H](C)O)[C@@H](C)O)[C@@H](C)O)[C@@H](C)O` [鲑鱼降钙素], the “ng吸收 (ng absorbed)” value in data set [4] (0.71 cm2) is 6,535 ng and 23,379 ng; in data set [4] (1.27 cm2), 72,958 ng and 16,461 ng and 20,989 ng and 17,614 ng.
